We go through 22 compounds from US9067888B2, “Inhibitors of protein kinases” (Ingenium Pharmaceuticals GmbH, priority 2010, dated 2015).

One assay concerns the target CDK9 (Homo sapiens (Human), UniProt P50750). Nature of the assay: In vitro kinase inhibition, KinaseProfiler service of Millipore, residual activity. The format is biochemical. The settings on record: for remaining activity at 0.01 µM / CDK9 10 nM (RA in %): residual activity at 10 nM compound; for remaining activity at 0.01 µM: read-out: CDK9 10 nM (RA in %); for remaining activity at 0.1 µM / CDK9 100 nM (RA in %): residual activity at 100 nM compound; for remaining activity at 0.1 µM: read-out: CDK9 100 nM (RA in %). From the text: In vitro kinase assay analysis may be performed using standard techniques described in the art. These techniques are also used by commercial services providers in order to offer in vitro kinase activity assay services, e.g. the assays offered by Millipore Inc. (worldwide website www(dot)millipore.com), ProQinase GmbH (worldwide website www(dot)proqinase.de) and others.
In vitro kinase inhibition results shown in columns 7 to 9 in Table 1 were obtained by employing the KinaseProfiler™ service of Millipore and used to select compounds displaying specificity for CDK9. Specifically, it was intended to distinguish the CDK9-specific compounds from other compounds having significant inhibitory potency also with regard to other CDKs.

The subject of assay [1] is TNF-alpha inducible reporter gene. The assay is described as follows: Inhibition of TNF-alpha-induced reporter gene expression (luciferase) in HeLa-derived cell line. The class given is cell-based, human. The settings on record: remaining luciferase activity in presence of 3 μM of compound as ratio of DMSO-treated cells, TNF-alpha 50 ng/ml; for activity at 3 µM: Homo sapiens, 6 h, read-out: Efficacy (ratio to DMSO) TNF-alpha induced response; for Efficacy (ratio to DMSO) TNF-alpha induced response: 6 hours. From the text:
TNF-alpha responsive cell lines like the human HeLa cell line can be used to study cellular responses to TNF-alpha, e.g. transcriptional regulation of a transfected TNF-alpha responsive reporter gene, and effects of kinase inhibitors on this response.
In order to analyse compound effects on TNF-alpha mediated transcriptional response, a HeLa-derived cell line stably transfected with a TNF-alpha inducible reporter gene was used (Panomics Catalog No. RC0013). The cell line was obtained by co-transfection of a luciferase reporter gene (Panomics P/N LR0051) and pHyg into human cervical epithelial HeLa cells, followed by hygromycin selection. TNFα-induced luciferase activity was used to select clones from the hygromycin-resistant cells. The cell line was maintained and stimulated according to the manufacturer's instructions. Briefly, cells were seeded at 5×10^5/well in 1 ml of growth medium in a 12-well plate and incubated in a humidified incubator at 37° C. and 5% CO2 for 24 hours. Medium was replaced with 1 ml of serum free medium and compounds were added up to concentrations of […]. After 1 hour of incubation, TNF-alpha was added to achieve a final concentration of 50 ng/ml. The culture dish was further incubated in a humidified incubator at 37° C. and 5% CO2 for 6 hours, medium was removed and 100 μL of lysis buffer were added to each well and the assay for luciferase activity was performed according to assay manufacturer's (Promega P/N E1500) recommendations. For more information about this cell line, go to worldwide website www(dot)panomics.com.
Compound effects on TNF-alpha-induced reporter gene expression is shown in column 6 in Table 1 given below. Indicated is the remaining luciferase activity after incubation in presence of 3 μM of compound as a ratio of the activity of DMSO-treated cells without compound. Specifically, it was intended to distinguish cell permeable compounds from other compounds having significant inhibitory potency with regard to other CDKs, but fail to penetrate cells or are unstable under the conditions of the experiment.
In general terms: A reporter such as luciferase makes a cellular process visible.

Sequence of CDK9 (P50750 whole entry): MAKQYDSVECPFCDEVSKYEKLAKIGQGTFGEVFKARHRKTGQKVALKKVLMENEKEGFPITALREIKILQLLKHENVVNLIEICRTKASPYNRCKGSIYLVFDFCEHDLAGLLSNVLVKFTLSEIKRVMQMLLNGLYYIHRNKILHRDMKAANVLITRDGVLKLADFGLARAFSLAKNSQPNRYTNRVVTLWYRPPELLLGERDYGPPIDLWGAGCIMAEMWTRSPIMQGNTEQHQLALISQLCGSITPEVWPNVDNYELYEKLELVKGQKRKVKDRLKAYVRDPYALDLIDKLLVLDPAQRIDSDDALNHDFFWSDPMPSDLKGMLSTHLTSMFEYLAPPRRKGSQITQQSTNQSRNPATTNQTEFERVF
Sequence of CDK9 (O60563 whole entry partner): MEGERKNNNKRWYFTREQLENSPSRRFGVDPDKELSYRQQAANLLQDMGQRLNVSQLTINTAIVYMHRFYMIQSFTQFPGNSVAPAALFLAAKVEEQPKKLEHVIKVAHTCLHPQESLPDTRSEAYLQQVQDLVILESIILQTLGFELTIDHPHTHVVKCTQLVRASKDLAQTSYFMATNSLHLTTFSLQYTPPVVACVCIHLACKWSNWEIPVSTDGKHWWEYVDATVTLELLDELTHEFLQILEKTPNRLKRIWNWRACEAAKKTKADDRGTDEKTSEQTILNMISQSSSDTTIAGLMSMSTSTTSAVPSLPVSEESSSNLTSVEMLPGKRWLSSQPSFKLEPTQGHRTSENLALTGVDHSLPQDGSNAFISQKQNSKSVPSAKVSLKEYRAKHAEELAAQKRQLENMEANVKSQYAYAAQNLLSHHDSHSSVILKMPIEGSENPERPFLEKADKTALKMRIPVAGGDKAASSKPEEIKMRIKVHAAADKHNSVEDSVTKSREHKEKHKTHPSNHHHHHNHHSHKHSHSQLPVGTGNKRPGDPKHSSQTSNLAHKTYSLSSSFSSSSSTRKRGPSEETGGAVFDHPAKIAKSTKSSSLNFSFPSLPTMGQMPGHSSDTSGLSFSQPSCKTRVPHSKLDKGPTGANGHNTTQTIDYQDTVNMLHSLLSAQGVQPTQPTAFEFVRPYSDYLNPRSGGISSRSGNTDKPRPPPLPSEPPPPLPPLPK

For `COc1cc(F)ccc1-c1ccnc(NC(=O)C(C)Cc2ccc(N3CCN(C)CC3)cc2)c1` (stereo not shown) [Example 28, 2-(4-(4-Methylpiperazin-1-yl)benzyl)-N-(4-(4-fluoro-2-methoxyphenyl)-pyridin-2-yl)propanamide], at CDK9, the remaining activity at 0.01 µM is 88% and the remaining activity at 0.1 µM stood at 49%. The activity at 3 µM in assay [1] was 121%.

In the case of `COc1cc(F)ccc1-c1ccnc(NC(=O)CC(C)c2ccc(N3CCN(C)CC3)cc2)c1` (stereo not shown) [Example 29, N-(4-(4-Fluoro-2-methoxyphenyl)pyridin-2-yl)-3-(4-(4-methylpiperazin-1-yl)phenyl)butanamide], on CDK9, the remaining activity at 0.01 µM was found to be 95% and the remaining activity at 0.1 µM was 39%. Also, the activity at 3 µM in assay [1] came to 105%.

Consider `COc1cc(F)ccc1-c1ccnc(NC(=O)[C@H]2CC[C@@H](Nc3nccs3)CC2)c1` [Example 35, cis-N-(4-(4-Fluoro-2-methoxyphenyl)pyridin-2-yl)-4-(thiazol-2-ylamino)-cyclohexanecarboxamide], for which, at CDK9, the remaining activity at 0.01 µM was 36% and the remaining activity at 0.1 µM worked out at 4%. In addition, the activity at 3 µM in assay [1] stood at 2%.

`COc1cc(F)ccc1-c1ccnc(NC(=O)CC(C)c2ccncc2)c1` (stereo not shown) [Example 21, N-(4-(4-Fluoro-2-methoxyphenyl)pyridin-2-yl)-3-(pyridin-4-yl)butanamide]: at CDK9, the remaining activity at 0.01 µM came to 88% and the remaining activity at 0.1 µM amounted to 29%. Besides, the activity at 3 µM in assay [1] was 82%.

For the compound `COc1cc(F)ccc1-c1ccnc(NC(=O)[C@H]2CC[C@@H](N)CC2)c1` [Example 4, cis-4-Amino-N-(4-(4-fluoro-2-methoxyphenyl)pyridin-2-yl)cyclohexane-carboxamide], on CDK9, the remaining activity at 0.01 µM is 59% and the remaining activity at 0.1 µM was 4%. The activity at 3 µM in assay [1] was 5%.

As to `COc1cc(F)ccc1-c1ccnc(NC(=O)[C@H]2CCC[C@H](NC(C)=O)C2)c1` (relative stereo) [Example 26, trans-3-Acetamido-N-(4-(4-fluoro-2-methoxyphenyl)-pyridin-2-yl)cyclohexanecarboxamide], at CDK9, the “CDK9 10 nM (RA in %)” value came to 33% and the “CDK9 100 nM (RA in %)” value was 5%.

Consider `COc1cc(F)ccc1-c1ccnc(NC(=O)CC(C)c2cccnc2)c1` (stereo not shown) [Example 23, N-(4-(4-Fluoro-2-methoxyphenyl)pyridin-2-yl)-3-(pyridin-3-yl)butanamide], for which, at CDK9, the remaining activity at 0.01 µM was 95% and the remaining activity at 0.1 µM turned out to be 35%. Moreover, the activity at 3 µM in assay [1] was 89%.

As to `COc1cc(F)ccc1-c1ccnc(NC(=O)C(C)c2ccc(N3CCN(C)CC3)cc2)c1` (stereo not shown) [Example 27, N-(4-(4-Fluoro-2-methoxyphenyl)pyridin-2-yl)-2-(4-(4-methylpiperazin-1-yl)phenyl)propanamide], on CDK9, the remaining activity at 0.01 µM was 65% and the remaining activity at 0.1 µM is 8%. The activity at 3 µM in assay [1] was determined as 8%.

As for `COc1cc(F)ccc1-c1ccnc(NC(=O)[C@H]2CC[C@@H](NCc3ccccc3)CC2)c1` [Example 38, cis-4-(Benzylamino)-N-(4-(4-fluoro-2-methoxyphenyl)pyridin-2-yl)cyclo-hexanecarboxamide], on CDK9, the remaining activity at 0.01 µM was determined as 65% and the remaining activity at 0.1 µM was 4%. The activity at 3 µM in assay [1] stood at 2%.

`COc1ccc(F)cc1-c1ccnc(NC(=O)C(C)c2cccs2)c1` (stereo not shown) [Example 18, N-(4-(5-Fluoro-2-methoxyphenyl)pyridin-2-yl)-2-(thiophen-2-yl)propanamide]: on CDK9, the “CDK9 10 nM (RA in %)” value is on record as 32% and the “CDK9 100 nM (RA in %)” value was 5%. In addition, the “Efficacy (ratio to DMSO) TNF-alpha induced response” value in assay [1] worked out at 0.07.

For `COc1cc(F)ccc1-c1ccnc(NC(=O)C(C)Cc2cccnc2)c1` (stereo not shown) [Example 24, N-(4-(4-Fluoro-2-methoxyphenyl)pyridin-2-yl)-2-((pyridin-3-yl)methyl)-propanamide], on CDK9, the remaining activity at 0.01 µM is 92% and the remaining activity at 0.1 µM is 32%. For the same compound, the activity at 3 µM in assay [1] was determined as 104%.

Consider `COc1cc(F)ccc1-c1ccnc(NC(=O)C(C)c2ccncc2)c1` (stereo not shown) [Example 16, N-(4-(4-Fluoro-2-methoxyphenyl)pyridin-2-yl)-2-(pyridin-4-yl)propanamide], for which, at CDK9, the “CDK9 10 nM (RA in %)” value was found to be 65% and the “CDK9 100 nM (RA in %)” value turned out to be 7%. For the same compound, in assay [1], the “Efficacy (ratio to DMSO) TNF-alpha induced response” value is 0.04.

With `COc1cc(F)ccc1-c1ccnc(NC(=O)Cc2ccncc2)c1` [Example 8, N-(4-(4-Fluoro-2-methoxyphenyl)pyridin-2-yl)-2-(pyridin-4-yl)acetamide], on CDK9, the remaining activity at 0.01 µM was found to be 93% and the remaining activity at 0.1 µM worked out at 7%. Moreover, the activity at 3 µM in assay [1] came to 4%.

`COc1ccc(CC(=O)Nc2cc(-c3ccc(F)cc3OC)ccn2)cn1` [Example 14, N-(4-(4-Fluoro-2-methoxyphenyl)pyridin-2-yl)-2-(6-methoxypyridin-3-yl)acetamide]: at CDK9, the remaining activity at 0.01 µM is 25% and the remaining activity at 0.1 µM came to 7%. Moreover, the activity at 3 µM in assay [1] is 4%.

Turning to `COc1ccc(F)cc1-c1ccnc(NC(=O)[C@@H](C)c2ccccc2)c1` [Example 10, (2S)—N-(4-(5-Fluoro-2-methoxyphenyl)pyridin-2-yl)-2-phenylpropanamide], on CDK9, the remaining activity at 0.01 µM was 68% and the remaining activity at 0.1 µM is 10%. Besides, the activity at 3 µM in assay [1] came out at 10%.

For `COc1cc(F)ccc1-c1ccnc(NC(=O)[C@H]2CCC[C@H](NC(C)=O)C2)c1` (relative stereo) [Example 25, trans-3-Acetamido-N-(4-(4-fluoro-2-methoxyphenyl)-pyridin-2-yl)cyclohexanecarboxamide], on CDK9, the “CDK9 10 nM (RA in %)” value was found to be 99% and the “CDK9 100 nM (RA in %)” value worked out at 78%.

Consider `COc1cc(F)ccc1-c1ccnc(NC(=O)[C@@H]2CC[C@H](NCc3ccccc3)C2)c1` [Example 37, (1R,3S)-3-(Benzylamino)-N-(4-(4-fluoro-2-methoxyphenyl)pyridin-2-yl)cyclopentanecarboxamide], for which, on CDK9, the remaining activity at 0.01 µM is 20% and the remaining activity at 0.1 µM came to 2%. Also, the activity at 3 µM in assay [1] amounted to 2%.

Consider `COc1cc(F)ccc1-c1ccnc(NC(=O)C(C)Cc2ccncc2)c1` (stereo not shown) [Example 22, N-(4-(4-Fluoro-2-methoxyphenyl)pyridin-2-yl)-2-((pyridin-4-yl)methyl)-propanamide], for which, at CDK9, the remaining activity at 0.01 µM is 93% and the remaining activity at 0.1 µM amounted to 39%. Also, in assay [1], the activity at 3 µM amounted to 98%.

In the case of `COc1cc(F)ccc1-c1ccnc(NC(=O)Cc2ccccc2)c1` [Example 7, N-(4-(4-Fluoro-2-methoxyphenyl)pyridin-2-yl)-2-phenylacetamide], at CDK9, the remaining activity at 0.01 µM was found to be 78% and the remaining activity at 0.1 µM was found to be 17%. The activity at 3 µM in assay [1] came out at 8%.

For `COc1cc(F)ccc1-c1ccnc(NC(=O)Cc2ccnc(Cl)c2)c1` [Example 19, 2-(2-Chloropyridin-4-yl)-N-(4-(4-fluoro-2-methoxyphenyl)pyridin-2-yl)acetamide], on CDK9, the remaining activity at 0.01 µM worked out at 49% and the remaining activity at 0.1 µM worked out at 9%. For the same compound, the activity at 3 µM in assay [1] stood at 6%.

As to `COc1cc(F)ccc1-c1ccnc(NC(=O)[C@@H]2CC[C@H](Nc3ccccc3)C2)c1` [Example 39, (1R,3S)—N-(4-(4-Fluoro-2-methoxyphenyl)pyridin-2-yl)-3-(phenylamino)-cyclopentanecarboxamide], on CDK9, the remaining activity at 0.01 µM is 60% and the remaining activity at 0.1 µM came out at 6%. For the same compound, the activity at 3 µM in assay [1] worked out at 5%.

Consider `COc1cc(F)ccc1-c1ccnc(NC(=O)[C@@H]2CCC[C@H](NC(C)=O)C2)c1` [Example 40, (1R,3S)-3-Acetamido-N-(4-(4-fluoro-2-methoxyphenyl)pyridin-2-yl)cyclohexanecarboxamide], for which, at CDK9, the remaining activity at 0.01 µM is 89% and the remaining activity at 0.1 µM worked out at 38%. Also, the activity at 3 µM in assay [1] was determined as 46%.
